The record followed here is US6703214B2, “Lipid uptake assays” (Devgen NV, priority 2000, dated 2004).

Assay [1] relates to C. elegans. As to the kind of experiment: Fatty acid uptake assay after overnight compound incubation (activation of FATPs), C4-BODIPY-C9 probe. Format: in vivo. As for the experimental part: A fixed amount of probe is then distributed in the microtiter wells. The nematodes are incubated for one hour at room temperature in presence or absence of molecules to be tested. The microtiter plate is rinsed 3 to 4 times, using a standard plate washer (Wellwash, Labsystems, Zellik, Belgium), taking care to perform the aspiration sufficiently distant from the bottom of the well to avoid any loss of nematodes remaining at the bottom. The fluorescence intensity is then measured using a fluorescence microtiter plate reader, using a standard set of fluorescein filters.
Retinoic acid and troglutazones are activators of RXR and PPARγ respectively. C. elegans worms were incubated with these compounds in a range from 100 μM to 0.1 μM for a time period between 1 to 6 hours. Fatty acid uptake was measured using the microtiter plate assay described above.
More particularly, constitutive pharynx pumping worms in late L4 stage or young adults were incubated overnight on agar plates with different concentrations of the retinoic acid or troglutazone (e.g. Rosiglitazon). The compounds were added as solutions in 1 ml M9. After overnight incubation, these worms were further incubated for 1 h with 50 μM C4-BODIPY-C9 in 1 ml M9 on the same agar plates. After incubation the worms were washed three times and dispensed with the worm dispenser, up to 50 worms per well in the multi-well plates. Fluorescence intensity was measured using a microtiter plate reader, as described above.

Assay [2] relates to wild type (N2) C. elegans. Description: Lipid uptake assay with quenched probe (QBFA) in liquid culture after overnight compound incubation on agar plates. Format: in vivo. Particulars: L4 stage worms, about 16 h with various concentrations; 10 μM QBFA, fluorescence read after 2 hours; FIG. 21. The procedure:
Standard 9 cm agar plates were seeded with E. coli (any strain suitable for use in culture of C. elegans may be used). 1 ml volume of rosiglitazone at various concentrations was added to the plates and the plates seeded with L4 stage C. elegans. After an overnight incubation (approximately 16 h), the C. elegans were isolated and washed three times with approximately 15 ml M9 buffer. The worms were then re-suspended into microtiter plates, at 100 worms per well. Quenched probe (QBFA) was added at a final concentration of 10 μM in a total volume of 100 μl. Fluorescence measurements were taken after 2 hours in an automated plate reader. Typical results are illustrated in FIG. 21.

In the case of troglutazone, the “effect on fatty acid uptake (in words)” value in assay [1] (increased expression of FATP by applying the compound) is “clearly enhanced fatty acid uptake”.

Turning to `CN(CCOc1ccc(CC2SC(=O)NC2=O)cc1)c1ccccn1` (stereo not shown) [Rosiglitazon], the “increase in fatty acid uptake” value in assay [1] (constitutive pharynx pumping worms, late L4/young adults, overnight incubation with compound on agar plates, 1 h with 50 μM C4-BODIPY-C9, FIG. 8) is given as 5 fold. Also, the “increase in fatty acid uptake, also observed at low concentration” value in assay [1] (only 3 μM of Rosiglitazon applied, otherwise as E1) turned out to be 5 fold. In assay [2], the “effect on lipid uptake (in words)” value is “have an effect on lipid uptake”.
